Experimental data: US7105296B2, “Genes encoding Baeyer-Villiger monooxygenases” (E. I. du Pont de Nemours and Company, priority 2001, dated 2006)

Assays:
Assay in all cases: chnB monooxygenase activity by NADPH oxidation at 340 nm
Format in all cases: biochemical
[1] = test system: Rhodococcus sp. phi1 chnB monooxygenase; details: purified over-expressed enzyme; 1.25 mM substrate; pH 7.5; ND = No Activity Detected
Text: (§1) Following amplification, the chnB gene fragments were cloned into pTrcHis-TOPO TA vectors with either an N-terminal tail or C-terminal tail, as provided by the vector sequence (N-terminal tail for Brevibacterium sp. HCU, Rhodococcus sp. phi1, Rhodococcus sp. phi2, and Arthrobacter sp. BP2 monooxygenases; C-terminal tail for Acinetobacter sp. SE19 and Acidovorax sp. CHX monooxygenases). These vectors were transformed into E. coli, with transformants grown in Luria-Bertani broth supplemented with ampicillin (100 ug/ml) and riboflavin (0.1 ug/ml) at 30° C. until the absorbance at 600 nm (A600) reached 0.5. When the A600 was reached, the temperature was shifted to 16° C.
(§2) The encoded monooxygenase sequences were expressed upon addition of IPTG to the culture media, 30 min after the temperature shift to 16° C. The cultures were grown further overnight (14 hrs) and harvested by centrifugation in a cold centrifuge. The cells were treated with lysozyme (100 mg/ml) for 30 min on ice and sonicated. Following sonication, cell extracts were centrifuged and the supernatant was equilibrated with Ni-NTA resin (Qiagen, Valencia, Calif.) for 1 hr at 4° C. Protein bound resin was washed successively with increasing concentrations of imidazole buffer until the protein of interest was released from the resin. The purified protein was concentrated and the buffer exchanged to remove the imidazole. The protein concentration was adjusted to 1 ug/ml.
(§3) Compounds were selected on the basis of previous observations by van der Werf (J. Biochem. 347:693–701 (2000)) and Miyamoto et al. (Biochimica et Biophysica Acta 1251: 115–124 (1995)) and by searches for the ketone substructure.
(§4) All compounds were obtained from Sigma-Aldrich with only two exceptions. Levoglucosenone was obtained from Toronto Research Chemicals, Inc. and dimethyl-2-piperidone was prepared according to U.S. Pat. No. 6,077,955. For enzyme assays all compounds were dissolved to a concentration of 0.1 M in methanol, with the exceptions of norcamphor (dissolved in ethyl acetate), cyclododecanone, cycltridecanone and cyclopentadecanone (dissolved in propanol), and levoglucosenone (dissolved with acetone).
(§5) The monooxygenase activity of each over-expressed enzyme was assayed spectrophotometrically at 340 nm by monitoring the oxidation of NADPH. Assays were performed in individual quartz cuvettes, with a pathlength of 1 cm. […] An Ultrospec 4000 (Pharmacia Biotech, Cambridge, England) was used to read the absorbance of the samples over a two to ten minute time period and the SWIFT (Pharmacia Biotech) program was used to calculate the slope of the reduction in absorbance over time. For the Brevibacterium sp. […] Monooxygenase activity of each over-expressed enzyme is shown in Table 5, with respect to each ketone substrate. The specific activity values listed are given in umol/min/mg. The notation “ND” refers to “No Activity Detected”.

[2] = test system: Acidovorax sp. CHX chnB monooxygenase; details: purified over-expressed enzyme; 1.25 mM substrate; pH 7.5; ND = No Activity Detected
Text: as §1, §2, §3, §4, §5

[3] = target: T1, Acinetobacter sp. SE19 chnB monooxygenase (Acinetobacter sp., UniProt Q9F7E4); details: purified over-expressed enzyme; 1.25 mM substrate; pH 7.5; ND = No Activity Detected
T1 construct: expression in E. coli of isolated full length BVMO genes from Brevibacterium sp; HCU, Acinetobacter SE19; C-terminal tail provided by the pTrcHis-TOPO vector (C); made in house; host or cells: E. coli
Text: as §1, §2, §3, §4, §5

[4] = test system: Rhodococcus sp. phi2 chnB monooxygenase; details: purified over-expressed enzyme; 1.25 mM substrate; pH 7.5; ND = No Activity Detected
Text: as §1, §2, §3, §4, §5

[5] = test system: Arthrobacter sp. BP2 chnB monooxygenase; details: purified over-expressed enzyme; 1.25 mM substrate; pH 7.5; ND = No Activity Detected
Text: as §1, §2, §3, §4, §5

[6] = test system: Brevibacterium sp. HCU chnB1 monooxygenase; details: purified over-expressed enzyme; 1.25 mM substrate; pH 7.5; ND = No Activity Detected
Text: as §1, §2, §3, §4, §5

[7] = test system: Brevibacterium sp. HCU chnB2 monooxygenase; details: purified over-expressed enzyme; 1.25 mM substrate; pH 7.5; rates multiplied by a factor of 3.25 to adjust for decrease in activity due to storage; ND = No Activity Detected
Text: as §1, §2, §3, §4, §5

SMILES | Specific Activity of Monooxygenase Enzymes Against Various Ketone Substrates, sp. phi1 chnB [1] [µmol/min/mg] | Specific Activity of Monooxygenase Enzymes Against Various Ketone Substrates, sp. CHX chnB [2] [µmol/min/mg] | further results
O=C1CCCCC1=O [1,2-cyclohexanedione] | 0.083 | 0.096 | Specific Activity of Monooxygenase Enzymes Against Various Ketone Substrates, sp. SE19 chnB [3]: 0.077 µmol/min/mg
O=C1CCCC(=O)C1 [1,3-cyclohexanedione] |  | 0.032 | 
O=C1CCCCC1c1ccccc1 (centres unmarked) [2-phenyl-cyclohexanone] |  |  | Specific Activity of Monooxygenase Enzymes Against Various Ketone Substrates, sp. phi2 chnB [4]: 0.730 µmol/min/mg
CCCCCCCCCCCC(C)=O [2-tridecanone] | 0.160 | 0.096 | 
O=C1CCCCCCCCC1 [Cyclodecanone] | 0.077 | 0.160 | Specific Activity of Monooxygenase Enzymes Against Various Ketone Substrates, sp. SE19 chnB [3]: 0.320 µmol/min/mg
O=C1CCCCCCCCCCC1 [Cyclododecanone] |  | 0.051 | 
O=C1CCCCCCC1 [Cyclooctanone] |  | 0.410 | 
O=C1CCCCCCCCCC1 [Cycloundecanone] |  | 0.058 | Specific Activity of Monooxygenase Enzymes Against Various Ketone Substrates, sp. BP2 chnB [5]: 0.064 µmol/min/mg; Specific Activity of Monooxygenase Enzymes Against Various Ketone Substrates, sp. phi2 chnB [4]: 0.051 µmol/min/mg; Specific Activity of Monooxygenase Enzymes Against Various Ketone Substrates, sp. SE19 chnB [3]: 0.064 µmol/min/mg
O=C1CC2CC[C@H]1C2 [Norcamphor] |  |  | Specific Activity of Monooxygenase Enzymes Against Various Ketone Substrates, sp. HCU chnB1 [6]: 0.410 µmol/min/mg
CCCCCCC(=O)CCCCCC [dihexyl ketone] | 0.160 |  | Specific Activity of Monooxygenase Enzymes Against Various Ketone Substrates, sp. HCU chnB2 [7]: 0.270 µmol/min/mg
C[S+](C)[O-] [dimethyl sulfoxide] |  |  | Specific Activity of Monooxygenase Enzymes Against Various Ketone Substrates, sp. HCU chnB1 [6]: 0.230 µmol/min/mg
